What was measured:
Assay type in all cases: biochemical, wheat germ
[1] = test system: PCSK9-FS[1:33]-GFP translation; assay: Microfluidic activity-based DEL counter screen in WG IVTT droplets, PCSK9-FS[1:33]-GFP, hit k class by sequencing; conditions: number of times hit structure observed on distinct beads, summed across PCSK9-FS[1:33]-GFP screens; *** p < 0.001, NS not significant
Protocol: (§1) The validated PF846-inspired library was screened to discover novel translation inhibitors. DEL beads were encapsulated in microfluidic droplets of WG IVTT and irradiated with UV in flow to liberate DEL members into the droplets. The photodosed droplets were incubated and sorted based on fluorescence.[25] PCSK9[1:33]-GFP was chosen as a proof-of-concept target, and PCSK9-FS[1:33]-GFP was used as a counter screen target to identify nonselective compounds. PC-HygB were mixed with DEL beads and screened in the microfluidic device for inhibitors of translation. […] Droplet generation, bead introduction, and library and control bead hit rate were uniform during the screen (Figure 3, bottom).
(§2) Hit collection DNA tags from the PCSK9[1:33]-GFP and PCSK9-FS[1:33]-GFP screens were sequenced to deduce the structures of molecules that inhibited PCSK9[1:33]- or PCSK9-FS[1:33]-GFP translation. Hit structure k class, the number of times a given hit structure is observed on distinct beads,[31] was summed across screens and visualized as a heat map (Figure 4A). […] The combined hit sets for the two templates contained 121 unique hits with k ≥ 17 across the two screening campaigns. The most frequently observed cycle 1 starter BBs were 1 and 2, which share an 8-methylisoquinoline moiety, but differ in the vector for cycle 2 carboxylic acid connection, and 3, which contains an N-methylazaindole moiety. The most frequently identified cycle 2 tails included carboxylic acids 4–7. […] Substituted pyrazole 6 and pyridyl-benzimidazole 7 also appeared frequently with the aforementioned starters. There were 5 hits that appeared with high k class in both PCSK9[1:33]-GFP and PCSK9[1:33]-FS-GFP screening campaigns.
(§3) 319 the droplet experiment to homogenize the bead suspension. Syringes were connected to
(§4) 320 fluidic inputs with microbore Tygon tubing (0.01” x 0.03” IC × OD). Droplet generation oil
(§5) 321 (OIL1) was 1% picosurf in HFE. Spacing (OIL2) and pinning (OIL3) oils were neat HFE.
(§6) 322 Assay reagents were driven by displacement syringe pumps (Legato 100, KD Scientific,
(§7) 323 Holliston, MA) through the circuit. OIL2 and OIL3 were initially flowed (22 µL/min and
(§8) 324 12 µL/min, respectively) and hit and waste shunt tubing were clamped to backfill the
(§9) 325 circuit. Once the incubator was filled with oil, the hit and waste tubing were unclamped
(§10) 326 and back shunts were clamped. AQ1, AQ2, and OIL1 flows were initiated (960 nL/min,
(§11) 327 640 nL/min, and 1200 nL/min, respectively) and held constant during the screen. Once
(§12) 328 droplet generation equilibrated (∼10 min), the main shunt was clamped and droplets
(§13) 329 started to fill the incubator. When droplets filled the incubator and entered the sorting
(§14) 330 region, data acquisition and screening was initiated.
(§15) 331 The custom confocal LIF detection setup and LabView code were previously described.S3
(§16) 332 Briefly, photon counting PMTs (H7828, Hamamatsu, Middlesex, NJ) were used to detect
(§17) 333 droplet fluorescence emission using a custom two-channel (520 and 570 nm) confocal mi-
(§18) 334 croscope with laser excitation (488 nm, 20 mW, OBIS-488 20LS, Coherent Inc., Santa Clara,
(§19) 335 CA). A data acquisition board (DAQ, NI, USB-6341, National Instruments) was used to
(§20) 336 digitize PMT signal, which was binned into counts, and in-house LabView code was used
(§21) 337 to control acquisition and execute droplet sorting decisions. Signal was smoothed in real-
(§22) 338 time using median-filter smoothing (width = 3). Droplets were identified by the 570 nm
(§23) 339 channel signal and the maximum signal in the 520 nm channel (max = countsn-1 when
(§24) 340 countsn <countsn-1) was set as the droplet peak value. A roaming sort threshold was
(§25) 342 the 520 nm channel. The threshold was calculated as µ - 5σ, where µ andσ were the mean
(§26) 343 and standard deviation of the previous 300 droplets’ fluorescence values, respectively. Hit
(§27) 344 droplets were not included in the calculation of droplet mean and standard deviation. A […]

[2] = test system: PCSK9-FS[1:33]-GFP translation; assay: WG IVTT microplate activity assay, PCSK9-FS[1:33]-GFP frameshift counter template; conditions: for IC50: PCSK9-FS[1:33]-GFP template, triplicate, undetectable IC50 marked >300; for activity on PCSK9-FS[1:33]-GFP translation (in words): frameshift control
Text: A commercially available wheat germ lysate (WG) IVTT system was employed to assay translation inhibition. Translation activity was detected via a GFP reporter, and the assay was miniaturized to picoliter-scale microfluidic droplets (Figure 1A,B). […] PCSK9 and RPL27 were truncated to the first 33 and 32 amino acids, respectively (PCSK9[1:33] and RPL27[1:32]). The sequences contain distinct PF846 stall sites and were both fused to a GFP reporter. The GFP reporter and a frameshift mutant of PCSK9[1:33] (PCSK9-FS[1:33]), which mutates the nascent chain sequence while maintaining a nearly identical mRNA sequence, were included as negative controls.[13] […] Sequence sensitivity was further confirmed by an N-terminal deletion series of PCSK9[1:33]-GFP; deletion of N-terminal residues increasingly ablated PCSK9[1:33]-GFP translation sensitivity to PF846 (Figure 1D). The WG IVTT assay was miniaturized using a previously described microfluidic circuit modified for longer incubation times (Figure S1)[27] using PF846 as a positive control compound, and assay statistical quality was calculated (Z′=0.7) (Figure 1E). To confirm detection of translation inhibition from library beads, hygromycin B, a nonselective aminoglycoside translation inhibitor, was coupled to beads displaying a photocleavable linker (PC-HygB). UV irradiation releases hygromycin from the bead, allowing it to interact with the WG IVTT assay in the droplet. PC-HygB bead photocleavage supernatant inhibited PCSK9[1:33]-GFP translation both in a microplate assay and in microfluidic droplets (Figure 1F,G, S2). Assay statistical quality using PC-HygB positive control beads was similarly calculated (Z′ = 0.75, Figure 1H). […]
436 Microplate IVTT Assays
437 Wheat germ lysate IVTT plate assays were prepared as 5 µL reactions. Wheat germ lysate
438 (3 µL) was added to test compound or vehicle control (1 µL) in a 384-well black microplate
439 and the reaction was incubated (10 min, RT). Template (1 µL) was added and reaction
440 progress was immediately monitored (λex = 480 nm, λem = 530 nm, 27 °C, 2 h). Rela-
441 tive activity was calculated using the slope of fluorescence increase over time (at 15–30
442 min post reaction initiation) for compound samples relative to that of the DMSO vehicle
443 control. All microplate experiments contained 25 ng/µL plasmid, except for assays with
445 respectively. HeLa lysate IVTT plate assays were prepared as 5.5 µL reactions. […]

[3] = test system: PCSK9[1:33]-GFP translation; assay: Microfluidic activity-based DEL screen in WG IVTT droplets, PCSK9[1:33]-GFP, hit k class by sequencing; conditions: number of times hit structure observed on distinct beads, summed across PCSK9[1:33]-GFP screens; *** p < 0.001, NS not significant
Protocol: as §1, §2, §3, §4, §5, §6, §7, §8, §9, §10, §11, §12, §13, §14, §15, §16, §17, §18, §19, §20, §21, §22, §23, §24, §25, §26, §27

| SMILES | k class PCSK9-FS [1] | IC50 [2] | activity on PCSK9-FS[1:33]-GFP translation (in words) [2] | k class PCSK9 [3] |
| --- | --- | --- | --- | --- |
| Cc1cccc2ccnc(N(C(=O)[C@H]3CCCN(C(=O)c4cccc5c(C#N)c[nH]c45)C3)[C@@H]3CCCNC3)c12 [Compound 8] | 0 | > 300 µM | inactive | 47 |
| Cc1cccc2ccnc(N(C(=O)C3CCN(C(=O)c4cccc5c(C#N)c[nH]c45)CC3)[C@@H]3CCCNC3)c12 [Compound 9] | 18 | 24 ± 0.4 µM | similarly active on both templates | 28 |

Source: PMC11503492, “Activity-Based DNA-Encoded Library Screening for Selective Inhibitors of Eukaryotic Translation” (ACS Central Science, 2024)
